Results as given in patent publication US9783488B2 (CHDI Foundation, Inc., priority 2013, dated 2017).

Tests used:
[1] = biological target: human catalytic domain HDAC4 protein (amino acids 648-1032) (Homo sapiens (Human), UniProt P56524); assay: Inhibition of HDAC4 catalytic domain enzymatic activity, fluorogenic substrate Boc-Lys(Tfa)-AMC; conditions: HDAC4 catalytic domain enzyme, read-out: Biochemical HDAC4 IC50
Text: Analysis of Inhibition of HDAC4 with Class IIa Histone Deacetylase (HDAC) Inhibitors
The potency of Class IIa Histone Deacetylase (HDAC) inhibitors is quantified by measuring the Histone Deacetylase 4 (HDAC4) catalytic domain enzymatic activity using the fluorogenic substrate, Boc-Lys(Tfa)-AMC. The substrate is deacetylated to Boc-Lys-AMC by HDAC4. Cleavage by trypsin results in the release of the fluorophore AMC from the deacetylated substrate. The fluorescence of the sample is directly related to the histone deacetylase activity in the sample.
Serially dilute HDAC inhibitor compounds. […] Stocks of 6 μl aliquots of the 10 mM compound in DMSO are prepared and stored at […]. From one stock aliquot of each compound to be tested and the reference compound, a 16-point serial dilution is prepared according to Table 1 using a 125 μl 16-channel Matrix multi-channel pipette (Matrix Technologies Ltd).
2 μl (200×) of each diluted solution and each control (full activity: 100% DMSO alone or full inhibition 1 mM) is stamped into V-bottomed polypropylene 384-well compound plates using either the Bravo (384-well head from Agilent) or 12.5 μl 16-channel Matrix multi-channel pipette (Matrix Technologies Ltd).
Prepare HDAC4 catalytic domain enzyme (0.2 μg/mL).
Prepare 5× ([…]) Boc-Lys(Tfa)-AMC Substrate. 5× (50 μM) substrate is prepared just prior to the addition to the assay. A 1 mM substrate stock is made by diluting a 100 mM Boc-Lys(Tfa)-AMC in DMSO solution 1:100 by adding it drop-wise to assay buffer (equilibrated to r.t.) while vortexing at slow speed to prevent precipitation. The 5× substrate is prepared by diluting the 1 mM substrate solution 1:20 by adding it drop-wise to assay buffer (equilibrated to r.t.) while vortexing at slow speed to prevent precipitation.
Prepare 3× (30 μM) Developer/Stop Solution.
Assay. 5 μl of each solution of 1:20 diluted compound from above is transferred to a clear bottomed, black, 384-well assay plate using the Bravo or the Janus (384-well MDT head from Perkin Elmer). Using a 16-channel Matrix multi-channel pipette, 35 μl of the working solution of HDAC4 catalytic domain enzyme (0.2 μg/mL in assay buffer) is transferred to the assay plate. […] The assay plate is then shaken for two minutes on an orbital shaker at 900 rpm (rotations per minute). Next the plate is incubated for 15 minutes at 37° C. The reaction is stopped by adding 25 μl of 3× (3 μM) developer/stop solution to the assay plates using either the Bravo, Janus or a 16-channel Matrix multi-channel pipette. Assay plates are then shaken for 5 minutes on an orbital shaker at 1200 rpm. Next, the assay plates are incubated at 37° C. for 1 hour in a tissue culture incubator.

[2] = tested on: cellular histone deacetylase enzymatic activity in Jurkat E6-1 cells; assay: Inhibition of cellular HDAC activity in Jurkat E6-1 cells, fluorogenic substrate Boc-Lys(Tfa)-AMC; type: cell-based; conditions: Homo sapiens, read-out: Cell IC50
Text: Analysis of Inhibition of Cellular HDAC Activity with Class IIa Histone Deacetylase (HDAC) Inhibitors
The potency of Class IIa Histone Deacetylase (HDAC) inhibitors is quantified by measuring the cellular histone deacetylase enzymatic activity using the fluorogenic substrate, Boc-Lys(Tfa)-AMC. After penetration in Jurkat E6-1 cells, the substrate is deacetylated to Boc-Lys-AMC. After cell lysis and cleavage by trypsin, the fluorophore AMC is released from the deacetylated substrate only. The fluorescence of the sample is directly related to the histone deacetylase activity in the sample.
Jurkat E6.1 cell culture and plating. Jurkat E6.1 cells are cultured according to standard cell culture protocols in Jurkat E6.1 Growth Media (RPMI without phenol red, 10% FBS, 1 mM HEPES, and 1 mM Sodium Pyruvate). Jurkat E6.1 cells are counted using a Coulter Counter and resuspended in Jurkat E6.1 growth media at a concentration of 75,000 cells/35 μl. 35 μl or 75,000 cells is seeded into Greiner microtitre assay plates. The plates are then incubated at 37° C. and 5% CO2 while other assay components are being prepared.
Serially dilute HDAC inhibitor compounds. Serial dilutions of the HDAC inhibitors and control reference compound (1-(5-(3-((4-(1,3,4-oxadiazol-2-yl)phenoxy)methyl)-1,2,4-oxadiazol-5-yl)thiophen-2-yl)-2,2,2-trifluoroethanone) are made by first resuspending the lyophilized compound to a final concentration of 10 mM in […]. Stocks of 70 μl aliquots of the 10 mM compound in DMSO are prepared and stored at −20° C. From one stock aliquot of each compound to be tested and the reference compound, a 16-point serial dilution is prepared according to Table 1 using a 125 μl 16-channel Matrix multi-channel pipette.
2 μl (200×) of each diluted solution and each control (full activity: 100% DMSO alone or full inhibition 1 mM) is stamped into V-bottom polypropylene 384-well compound plates using either the Bravo, Janus, or 12.5 μl 16-channel Matrix multi-channel pipette. Each well with the 200× compound solution is diluted 1:20 by the addition of 38 μl Jurkat assay buffer+DMSO (9.5% DMSO, RPMI without phenol red, 0.09% FBS, 9 mM Hepes, and 0.9 mM Sodium Pyruvate equilibrated to r.t.)
Prepare 5× (500 μM) Boc-Lys(Tfa)-AMC substrate. 5× (500 μM) substrate is prepared just prior to the addition to the assay. The 5× substrate is prepared by diluting a 100 mM Boc-Lys(Tfa)-AMC in DMSO solution 1:200 by adding it drop-wise to Jurkat assay medium (RPMI without phenol red, 0.1% FBS, 10 mM Hepes, and 1 mM Sodium Pyruvate equilibrated to 37° C.) while vortexing at slow speed to prevent precipitation.
Prepare 3× Lysis Buffer. 10 mL of 3× lysis buffer is prepared with 8.8 mL of 3× stock lysis buffer (50 mM Tris-HCl, pH 8.0, 137 mM NaCl, 2.7 mM KCl, 1 mM MgCl2, 1% Nonidet P40 Substitute equilibrated to r.t.) and 1.2 mL of 3 mg/mL Trypsin equilibrated to r.t.
Assay. 5 μl of each solution of 1:20 diluted compound from above is transferred to the Greiner microtitre assay plates with 75,000 cells/well using the Bravo. Cells are then incubated for 2 hours at 37° C. and 5% CO2. The assay is then started by adding 10 μl of 5× (500 μM) substrate to the assay plate using either the Bravo or 16-channel Matrix multi-channel pipette. The cells are then incubated for 3 hours at 37° C. and 5% CO2. Next, 25 μl of 3× lysis buffer is added to each well using either the 125 μl 16 channel pipette or the Bravo. The assay plate is then incubated overnight (15-16 hours) at 37° C. and 5% CO2. The following day, the plates are shaken on an orbital shaker for 1 minute at 900 rpm. Finally the top read fluorescence (Excitation: 355 nm, Emission: 460 nm) is measured using PerkinElmer EnVision.

Sequence of human catalytic domain HDAC4 protein (amino acids 648-1032) (P56524 648-1032): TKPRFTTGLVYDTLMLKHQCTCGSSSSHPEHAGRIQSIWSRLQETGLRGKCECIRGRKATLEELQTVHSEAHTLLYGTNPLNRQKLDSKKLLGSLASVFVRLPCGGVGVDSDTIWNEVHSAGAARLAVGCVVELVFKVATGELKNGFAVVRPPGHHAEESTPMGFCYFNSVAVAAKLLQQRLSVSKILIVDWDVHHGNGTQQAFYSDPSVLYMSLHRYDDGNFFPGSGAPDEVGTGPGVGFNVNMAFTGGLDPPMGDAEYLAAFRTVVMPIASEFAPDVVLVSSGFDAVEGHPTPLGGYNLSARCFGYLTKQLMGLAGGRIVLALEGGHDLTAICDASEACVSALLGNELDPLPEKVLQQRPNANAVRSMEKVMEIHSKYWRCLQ

IC50 [1] | IC50 [2] | SMILES
11000 nM | 46000 nM | O=C(NO)C1(c2ccccc2C(F)(F)F)CCCC1 [Example 34, N-Hydroxy-1-(2-(trifluoromethyl)phenyl)cyclopentanecarboxamide]
290 nM | 1910 nM | Cc1c(F)cccc1[C@]1(C(=O)NO)CC[C@@H](c2cncnc2)C1 (relative stereo) [Example 2, (±)-(1S*,3R*)-1-(3-fluoro-2-methylphenyl)-N-hydroxy-3-(pyrimidin-5-yl)cyclopentanecarboxamide]
55 nM | 59 nM | Cc1c(F)cccc1[C@]1(C(=O)NO)CC[C@@H](c2ccc3cnn(C)c3c2F)C1 (relative stereo) [Example 83, (1S,3R*)-3-(7-Fluoro-1-methyl-1H-indazol-6-yl)-1-(3-fluoro-2-methylphenyl)-N-hydroxycyclopentanecarboxamide]
1900 nM | 13000 nM | O=C(NO)[C@@]1(c2ccccc2)CC[C@@H](c2cncc(F)c2)C1 [Example 41, (1S,3R)-3-(5-fluoropyridin-3-yl)-N-hydroxy-1-phenylcyclopentanecarboxamide]
80 nM | 160 nM | Cc1c(F)cccc1[C@]1(C(=O)NO)CC[C@H](c2nc3ccccc3s2)C1 (relative stereo) [Example 75, (1S,3S*)-3-(Benzo[d]thiazol-2-yl)-1-(3-fluoro-2-methylphenyl)-N-hydroxycyclopentanecarboxamide]
82 nM | 300 nM | Cc1c(F)cccc1[C@]1(C(=O)NO)CC[C@H](c2ccn3ccnc3c2)C1 (relative stereo) [Example 58, (1S,3S*)-1-(3-fluoro-2-methylphenyl)-N-hydroxy-3-(imidazo[1,2-a]pyridin-7-yl)cyclopentanecarboxamide]
1500 nM | 12000 nM | Cc1cccc(F)c1C1(C(=O)NO)CCCC1 [Example 37, 1-(2-Fluoro-6-methylphenyl)-N-hydroxycyclopentanecarboxamide]
1400 nM | 12000 nM | Cc1c(F)cccc1C1(C(=O)NO)CCC2(CCOCC2)C1 (racemic) [Example 105, (±)-2-(3-fluoro-2-methylphenyl)-N-hydroxy-8-oxaspiro[4.5]decane-2-carboxamide]
59 nM | 110 nM | Cc1c(F)cccc1[C@]1(C(=O)NO)CC[C@H](c2ccc3ncn(C)c3c2)C1 (relative stereo) [Example 71, (1S,3S*)-1-(3-Fluoro-2-methylphenyl)-N-hydroxy-3-(1-methyl-1H-benzo[d]imidazol-6-yl)cyclopentanecarboxamide]
150 nM | 1410 nM | Cc1c(C2(C(=O)NO)CCCC2)ccc(F)c1F [Example 29, 1-(3,4-Difluoro-2-methylphenyl)-N-hydroxycyclopentanecarboxamide]
2500 nM | 24000 nM | Cc1c(F)cccc1[C@]1(C(=O)NO)CC[C@H](N2CCOCC2)C1 (relative stereo) [Example 90, (1S,3S*)-1-(3-Fluoro-2-methylphenyl)-N-hydroxy-3-morpholinocyclopentanecarboxamide]
11400 nM | > 50000 nM | O=C(NO)C1(c2ccccc2)CCCC1 [Example 21, N-Hydroxy-1-phenylcyclopentanecarboxamide]
98 nM | 180 nM | Cc1c(F)cccc1[C@]1(C(=O)NO)CC[C@@H](c2ccn3ccnc3c2)C1 (relative stereo) [Example 57, (1S,3R*)-1-(3-fluoro-2-methylphenyl)-N-hydroxy-3-(imidazo[1,2-a]pyridin-7-yl)cyclopentanecarboxamide]
62 nM | 120 nM | Cc1c(F)cccc1[C@]1(C(=O)NO)CC[C@@H](c2ccc3ncccc3c2)C1 (relative stereo) [Example 85, (1 S,3R*)-1-(3-Fluoro-2-methylphenyl)-N-hydroxy-3-(quinolin-6-yl)cyclopentanecarboxamide]
270 nM | 1700 nM | Cc1c(F)cccc1C1(C(=O)NO)CCCC1 [Example 18, 1-(3-fluoro-2-methylphenyl)-N-hydroxycyclopentanecarboxamide]
150 nM | 580 nM | Cc1c(F)cccc1[C@]1(C(=O)NO)CC[C@@H](c2cc3c(cnn3C)cc2F)C1 [Example 81, (1S,3R)-3-(5-Fluoro-1-methyl-1H-indazol-6-yl)-1-(3-fluoro-2-methylphenyl)-N-hydroxycyclopentanecarboxamide]
240 nM | 2370 nM | Cc1c(F)cccc1[C@]1(C(=O)NO)CC[C@@H](c2ccc(F)cn2)C1 (relative stereo) [Example 12, (1S,3R*)-1-(3-fluoro-2-methylphenyl)-3-(5-fluoropyridin-2-yl)-N-hydroxycyclopentane carboxamide]
400 nM | 360 nM | Cc1c(F)cccc1[C@]1(C(=O)NO)CC[C@@H](c2ccc3c(F)nn(C)c3c2)C1 (relative stereo) [Example 67, (1S,3R*)-3-(3-fluoro-1-methyl-1H-indazol-6-yl)-1-(3-fluoro-2-methylphenyl)-N-hydroxycyclopentanecarboxamide]
130 nM | 260 nM | Cc1c(F)cccc1[C@]1(C(=O)NO)CC[C@H](Oc2ccccc2)C1 [Example 96, (1S,3S)-1-(3-fluoro-2-methylphenyl)-N-hydroxy-3-phenoxycyclopentanecarboxamide]
2500 nM | 15600 nM | O=C(NO)C1(c2c(F)cccc2Cl)CCCC1 [Example 22, 1-(2-Chloro-6-fluorophenyl)-N-hydroxycyclopentanecarboxamide]
